The values that follow are results of earlier work, collected in patent US20250064971A1, “SUSTAINED RELEASE FORMULATIONS AND METHODS OF USE THEREOF” (VIRGINIA COMMONWEALTH UNIVERSITY, priority 2022, published 2025).

SMILES strings stand for the structures.

The target of the data set is hERG (Homo sapiens, UniProt Q12809). The conditions noted are these: compared to LAAM.
Chain of hERG (Q12809 whole entry): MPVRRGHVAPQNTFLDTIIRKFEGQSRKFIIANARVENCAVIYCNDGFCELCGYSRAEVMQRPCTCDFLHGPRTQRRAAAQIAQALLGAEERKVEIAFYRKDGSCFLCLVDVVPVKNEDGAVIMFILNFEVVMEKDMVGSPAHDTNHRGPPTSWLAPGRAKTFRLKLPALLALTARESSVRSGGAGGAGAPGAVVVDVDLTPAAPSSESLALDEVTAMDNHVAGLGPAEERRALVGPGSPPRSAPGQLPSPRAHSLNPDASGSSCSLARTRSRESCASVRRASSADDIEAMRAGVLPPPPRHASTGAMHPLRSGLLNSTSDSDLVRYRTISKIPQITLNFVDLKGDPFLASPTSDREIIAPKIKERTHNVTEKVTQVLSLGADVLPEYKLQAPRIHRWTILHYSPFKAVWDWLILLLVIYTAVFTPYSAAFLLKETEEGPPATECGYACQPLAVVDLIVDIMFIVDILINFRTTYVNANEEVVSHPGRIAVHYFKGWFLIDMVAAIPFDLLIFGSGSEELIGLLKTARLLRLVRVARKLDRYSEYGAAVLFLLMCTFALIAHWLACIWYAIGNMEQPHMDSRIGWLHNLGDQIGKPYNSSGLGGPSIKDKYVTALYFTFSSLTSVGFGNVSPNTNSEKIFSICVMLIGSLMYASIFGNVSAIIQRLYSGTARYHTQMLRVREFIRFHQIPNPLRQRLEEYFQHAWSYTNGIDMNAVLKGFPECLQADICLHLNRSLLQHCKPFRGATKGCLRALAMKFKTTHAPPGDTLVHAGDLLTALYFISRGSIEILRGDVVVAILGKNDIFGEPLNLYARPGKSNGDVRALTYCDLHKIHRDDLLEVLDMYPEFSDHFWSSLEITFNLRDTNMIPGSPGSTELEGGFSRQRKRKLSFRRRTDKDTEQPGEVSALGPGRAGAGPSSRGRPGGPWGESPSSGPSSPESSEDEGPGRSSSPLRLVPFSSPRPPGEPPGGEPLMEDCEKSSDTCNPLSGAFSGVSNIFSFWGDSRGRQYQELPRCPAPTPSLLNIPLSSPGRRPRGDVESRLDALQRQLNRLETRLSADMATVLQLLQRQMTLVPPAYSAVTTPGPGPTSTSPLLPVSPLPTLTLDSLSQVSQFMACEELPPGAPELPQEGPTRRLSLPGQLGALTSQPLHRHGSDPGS

Regarding `CCC(OC(C)=O)C(CC(C)NC)(c1ccccc1)c1ccccc1` (stereo not shown) [nor-LAAM], the “hERG inhibition IC50 (comparison in words)” value is “higher hERG inhibition IC50 than LAAM”.
